Results on three molecules are retold here after PubChem BioAssay AID1259407 (Chemical Carcinogenesis Research Information System (CCRIS), 2018).

In this data set the test system is CCRIS mutagenicity, Ames/micronucleus/aberration tests. Put plainly: CCRIS mutagenicity studies.
[1] abbreviates: Test System: AMES SALMONELLA TYPHIMURIUM, Strain/Indicator: TA100, Metabolic Activation: RAT, LIVER, S-9, AROCLOR 1254, Method: STANDARD PLATE.

Calls of active or inactive are those of the source. No rule for the calls is given here.

Take `CN(C)c1ccc(N=Nc2ccccc2)cc1`: the mutagenic call reads like this: (End Point: IN VIVO CHROMOSOMAL ABERRATIONS, Test System: BONE MARROW CELLS, Species: MOUSE, Strain/Sex: SWISS ALBINO, Route: DIET) “active; positive (% of aberrations increased with time)”; (End Point: IN VIVO MICRONUCLEUS, Test System: BONE MARROW CELL ERYTHROCYTES, Species: MOUSE, Strain/Sex: SWISS ALBINO, Route: DIET) “active; positive (% micronuclei increased with time)”; (End Point: IN VIVO MICRONUCLEUS, Test System: HEPATOCYTES, Species: RAT, Strain/Sex: FISHER 344 OR SD/MALE, Route: ORAL OR IP) “active; positive”; (End Point: IN VIVO MICRONUCLEUS, Test System: PERIPHERAL BLOOD RETICULOCYTES, Species: RAT, Strain/Sex: FISHER 344 OR SD/MALE, Route: ORAL OR IP) “active; positive”; (End Point: In vivo micronucleus, Test System: Micronucleated hepatocytes, Species: Rat, Strain/Sex: F344/Male, Route: Oral) “active; positive (highest dose only; p<0.05)”; (Test System: AMES SALMONELLA TYPHIMURIUM, Strain/Indicator: TA97, Metabolic Activation: HAMSTER, LIVER, S-9, AROCLOR 1254 (10%), Method: PREINCUBATION) “inactive; negative”. For the same molecule, the mutagenic call (Test System: AMES SALMONELLA TYPHIMURIUM, Strain/Indicator: TA97, Metabolic Activation: NONE, Method: PREINCUBATION) is “inactive; negative”; the mutagenic call (Test System: AMES SALMONELLA TYPHIMURIUM, Strain/Indicator: TA97, Metabolic Activation: RAT, LIVER, S-9, AROCLOR 1254 (10%), Method: PREINCUBATION) was “inactive; negative”; the mutagenic call (Test System: AMES SALMONELLA TYPHIMURIUM, Strain/Indicator: TA98, Metabolic Activation: HAMSTER, LIVER, S-9, AROCLOR 1254 (10%), Method: PREINCUBATION) was “active; positive”; the mutagenic call (Test System: AMES SALMONELLA TYPHIMURIUM, Strain/Indicator: TA98, Metabolic Activation: NONE, Method: PREINCUBATION) was “inactive; negative”; the mutagenic call (Test System: AMES SALMONELLA TYPHIMURIUM, Strain/Indicator: TA98, Metabolic Activation: RAT, LIVER, S-9, AROCLOR 1254 (10%), Method: PREINCUBATION) is “inactive; negative”; the mutagenic call (Test System: AMES SALMONELLA TYPHIMURIUM, Strain/Indicator: TA98, Metabolic Activation: RAT, LIVER, S-9, AROCLOR 1254, Method: STANDARD PLATE) is “active; positive”. Besides, the mutagenic call was “active; positive” (Test System: AMES SALMONELLA TYPHIMURIUM, Strain/Indicator: TA98, Metabolic Activation: RAT, LIVER, S-9, AROCLOR, Method: PREINCUBATION); “active; positive” (Test System: AMES SALMONELLA TYPHIMURIUM, Strain/Indicator: TA98, Metabolic Activation: RAT, LIVER, S-9, AROCLOR, Method: STANDARD PLATE); “active; positive” (Test System: AMES SALMONELLA TYPHIMURIUM, Strain/Indicator: TA98, Metabolic Activation: RAT, LIVER, S-9, KC500 OR PHENOBARBITAL, Method: LIQUID SUSPENSION); “inactive; negative” (Test System: AMES SALMONELLA TYPHIMURIUM, Strain/Indicator: TA100, Metabolic Activation: HAMSTER, LIVER, S-9, AROCLOR 1254 (5%), Method: PREINCUBATION); “inactive; negative” (Test System: AMES SALMONELLA TYPHIMURIUM, Strain/Indicator: TA100, Metabolic Activation: HAMSTER, LIVER, S-9, AROCLOR 1254 (10%), Method: PREINCUBATION); “active; positive” (Test System: AMES SALMONELLA TYPHIMURIUM, Strain/Indicator: TA100, Metabolic Activation: HAMSTER, LIVER, S-9, AROCLOR 1254 (30%), Method: PREINCUBATION). Further, the mutagenic call is “inactive; negative” (Test System: AMES SALMONELLA TYPHIMURIUM, Strain/Indicator: TA100, Metabolic Activation: NONE, Method: PREINCUBATION); “inactive; negative” (Test System: AMES SALMONELLA TYPHIMURIUM, Strain/Indicator: TA100, Metabolic Activation: RAT, LIVER, S-9, AROCLOR 1254 (5 OR 30%), Method: PREINCUBATION); “active; positive” under setting [1]; “active; positive” (Test System: AMES SALMONELLA TYPHIMURIUM, Strain/Indicator: TA100, Metabolic Activation: RAT, LIVER, S-9, KC500 OR PHENOBARBITAL, Method: LIQUID SUSPENSION); “inactive; negative” (Test System: AMES SALMONELLA TYPHIMURIUM, Strain/Indicator: TA1535, Metabolic Activation: HAMSTER, LIVER, S-9, AROCLOR 1254 (10%), Method: PREINCUBATION); “inactive; negative” (Test System: AMES SALMONELLA TYPHIMURIUM, Strain/Indicator: TA1535, Metabolic Activation: NONE, Method: PREINCUBATION). Moreover, the mutagenic call runs as follows: (Test System: AMES SALMONELLA TYPHIMURIUM, Strain/Indicator: TA1535, Metabolic Activation: RAT, LIVER, S-9, AROCLOR 1254 (10%), Method: PREINCUBATION) “inactive; negative”; (Test System: CHINESE HAMSTER V-79, Strain/Indicator: V-79/6-THIOGUANINE, Metabolic Activation: NONE, Method: SUSPENSION/PLATE) “inactive; negative”; (Test System: CHINESE HAMSTER V-79, Strain/Indicator: V-79/6-THIOGUANINE, Metabolic Activation: RAT, LIVER, S-9, PHENOBARBITAL AND BETA-NAPHTHOFLAVONE, Method: SUSPENSION/PLATE) “inactive; negative”; (Test System: E. COLI, Strain/Indicator: WP2 UVRA, Metabolic Activation: HAMSTER, LIVER, S-9, AROCLOR 1254, Method: STANDARD PLATE) “inactive; negative”; (Test System: E. COLI, Strain/Indicator: WP2 UVRA, Metabolic Activation: HAMSTER, LIVER, S-9, Method: STANDARD PLATE) “inactive; negative”; (Test System: E. COLI, Strain/Indicator: WP2 UVRA, Metabolic Activation: MOUSE, LIVER, S-9, AROCLOR 1254, Method: STANDARD PLATE) “inactive; negative”. Besides, the mutagenic call is, setting by setting: (Test System: E. COLI, Strain/Indicator: WP2 UVRA, Metabolic Activation: MOUSE, LIVER, S-9, Method: STANDARD PLATE) “inactive; negative”; (Test System: E. COLI, Strain/Indicator: WP2 UVRA, Metabolic Activation: NONE, Method: STANDARD PLATE) “inactive; negative”; (Test System: E. COLI, Strain/Indicator: WP2 UVRA, Metabolic Activation: RAT, LIVER, S-9, AROCLOR 1254, Method: STANDARD PLATE) “inactive; negative”; (Test System: E. COLI, Strain/Indicator: WP2 UVRA, Metabolic Activation: RAT, LIVER, S-9, Method: STANDARD PLATE) “inactive; negative”; (Test System: MOUSE LYMPHOMA, Strain/Indicator: L5178Y (TK+/TK-), Metabolic Activation: NONE, Method: SUSPENSION/PLATE) “inactive; negative”; (Test System: MOUSE LYMPHOMA, Strain/Indicator: L5178Y (TK+/TK-), Metabolic Activation: RAT, LIVER, S-9, AROCLOR 1254, Method: SUSPENSION/PLATE) “active; positive”.
In the case of `COC(=O)[C@@H]1O[C@@H]1c1ccccc1`, the mutagenic call reads like this: (Test System: AMES SALMONELLA TYPHIMURIUM, Strain/Indicator: TA98, Metabolic Activation: NONE, Method: STANDARD PLATE) “inactive; negative”; (Test System: AMES SALMONELLA TYPHIMURIUM, Strain/Indicator: TA100, Metabolic Activation: NONE, Method: STANDARD PLATE) “active; positive”; under setting [1], “inactive; negative”; (Test System: AMES SALMONELLA TYPHIMURIUM, Strain/Indicator: TA1535, Metabolic Activation: RAT, LIVER, S-9, AROCLOR 1254, Method: STANDARD PLATE) “inactive; negative”; (Test System: AMES SALMONELLA TYPHIMURIUM, Strain/Indicator: TA1537, Metabolic Activation: RAT, LIVER, S-9, AROCLOR 1254, Method: STANDARD PLATE) “inactive; negative”; (Test System: AMES SALMONELLA TYPHIMURIUM, Strain/Indicator: TA1538, Metabolic Activation: RAT, LIVER, S-9, AROCLOR 1254, Method: STANDARD PLATE) “inactive; negative”.
As to `O=C1c2ccccc2C(=O)N1CCCN1c2ccccc2Sc2ccc(Cl)cc21`, the mutagenic call (Test System: AMES SALMONELLA TYPHIMURIUM, Strain/Indicator: TA98, Metabolic Activation: NONE, Method: SPOT TEST) is “inactive; negative”.
